Laboratory results reported in ChEMBL document CHEMBL1201862, “PubChem BioAssay data set” (2004).
Activity calls are given as the source filed them.

Columns and labels:
[1] = microbe, parasite or virus in culture; format: functional; conditions: Mycobacterium tuberculosis
[2] = molecular target: Prothrombin (Bos taurus, UniProt P00735); assay: thrombin inhibition, dose response, biochemical, fluorescence polarization, uHTS hits (AID 602369); format: functional
[3] = molecular target: T1, Rac GTPase-activating protein 1 (Homo sapiens, UniProt Q9H0H5); assay: MgcRacGAP GTPase-activating activity inhibitors, confirmation, biochemical, ADP Hunter fluorescence, primary and confirmatory (AID 624330); format: functional
T1 sequence (Q9H0H5 whole entry): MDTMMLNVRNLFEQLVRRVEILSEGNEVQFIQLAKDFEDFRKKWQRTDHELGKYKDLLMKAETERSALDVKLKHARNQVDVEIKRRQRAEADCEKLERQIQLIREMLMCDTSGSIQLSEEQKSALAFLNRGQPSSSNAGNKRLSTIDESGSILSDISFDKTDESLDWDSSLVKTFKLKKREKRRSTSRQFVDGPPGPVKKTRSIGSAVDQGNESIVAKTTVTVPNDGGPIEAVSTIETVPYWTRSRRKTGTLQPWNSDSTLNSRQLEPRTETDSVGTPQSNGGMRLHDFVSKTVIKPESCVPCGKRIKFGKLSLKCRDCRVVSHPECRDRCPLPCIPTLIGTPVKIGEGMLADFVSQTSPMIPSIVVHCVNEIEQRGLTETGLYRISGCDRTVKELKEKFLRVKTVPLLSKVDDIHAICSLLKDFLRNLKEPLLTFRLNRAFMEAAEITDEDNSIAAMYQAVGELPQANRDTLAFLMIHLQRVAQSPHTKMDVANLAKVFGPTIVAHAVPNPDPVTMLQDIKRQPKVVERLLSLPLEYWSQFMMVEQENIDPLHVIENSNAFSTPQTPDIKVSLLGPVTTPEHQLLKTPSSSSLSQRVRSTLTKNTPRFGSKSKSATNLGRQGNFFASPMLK

[4] = molecular target: T2, Bcl-2-related protein A1 (Mus musculus, UniProt Q07440); format: functional;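 further: confirmatory dose–response counterscreen on Bfl-1, used to check hits from a UBC13 polyubiquitin inhibitor campaign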
T2 sequence (Q07440 whole entry): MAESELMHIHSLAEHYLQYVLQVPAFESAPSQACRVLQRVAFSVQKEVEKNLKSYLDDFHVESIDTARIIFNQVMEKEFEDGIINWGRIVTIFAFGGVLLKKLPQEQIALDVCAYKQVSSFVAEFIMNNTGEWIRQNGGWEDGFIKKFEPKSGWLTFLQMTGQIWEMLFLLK

[5] = molecular target: T3, Small ubiquitin-related modifier 1 (Homo sapiens, UniProt P63165); assay: inhibitors of SUMO1 peptide binding, dose response, biochemical, fluorescence polarization, uHTS hits (AID 624382); format: functional; conditions: read-out: IC50_Mean
[6] = molecular target: 26S proteasome non-ATPase regulatory subunit 14 (Homo sapiens, UniProt O00487); assay: inhibition of proteasome subunit RPN11 – biochemical, fluorescence polarization, uHTS hits, confirmation (AID 602368); format: functional
[7] = molecular target: T4, Apoptotic protease-activating factor 1 (Homo sapiens, UniProt O14727); format: functional
T4 sequence (O14727 whole entry): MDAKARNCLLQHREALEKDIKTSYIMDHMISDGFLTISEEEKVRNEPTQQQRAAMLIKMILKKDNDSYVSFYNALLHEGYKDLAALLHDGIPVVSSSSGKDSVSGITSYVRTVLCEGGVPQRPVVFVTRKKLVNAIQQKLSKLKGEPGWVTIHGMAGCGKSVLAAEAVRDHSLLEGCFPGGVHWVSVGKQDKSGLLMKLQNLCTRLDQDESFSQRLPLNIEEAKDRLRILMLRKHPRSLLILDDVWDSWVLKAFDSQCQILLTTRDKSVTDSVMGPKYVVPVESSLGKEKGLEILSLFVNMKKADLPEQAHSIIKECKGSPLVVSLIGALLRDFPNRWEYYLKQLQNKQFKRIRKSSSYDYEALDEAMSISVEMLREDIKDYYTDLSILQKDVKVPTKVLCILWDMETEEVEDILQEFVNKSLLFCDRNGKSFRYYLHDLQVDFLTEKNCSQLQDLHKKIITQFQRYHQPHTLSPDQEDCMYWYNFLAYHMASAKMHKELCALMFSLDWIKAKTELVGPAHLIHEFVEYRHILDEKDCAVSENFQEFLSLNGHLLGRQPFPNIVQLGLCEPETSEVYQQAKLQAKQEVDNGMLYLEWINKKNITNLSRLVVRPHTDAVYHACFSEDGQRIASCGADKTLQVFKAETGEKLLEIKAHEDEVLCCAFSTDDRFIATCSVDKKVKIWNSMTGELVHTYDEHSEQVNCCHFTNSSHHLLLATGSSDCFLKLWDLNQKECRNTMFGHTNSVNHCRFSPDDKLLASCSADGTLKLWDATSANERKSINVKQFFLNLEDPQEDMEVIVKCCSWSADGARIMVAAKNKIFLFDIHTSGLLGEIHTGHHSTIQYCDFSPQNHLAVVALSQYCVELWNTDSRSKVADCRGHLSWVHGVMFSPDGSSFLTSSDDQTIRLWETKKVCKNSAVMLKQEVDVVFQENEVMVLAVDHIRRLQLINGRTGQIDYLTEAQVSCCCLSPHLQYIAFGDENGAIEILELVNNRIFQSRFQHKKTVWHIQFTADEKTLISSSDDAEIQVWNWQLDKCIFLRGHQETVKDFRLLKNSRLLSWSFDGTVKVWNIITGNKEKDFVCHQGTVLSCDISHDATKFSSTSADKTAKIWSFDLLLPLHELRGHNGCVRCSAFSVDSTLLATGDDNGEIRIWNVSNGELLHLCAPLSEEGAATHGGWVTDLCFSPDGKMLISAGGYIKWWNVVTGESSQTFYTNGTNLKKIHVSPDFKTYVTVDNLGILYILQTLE

[8] = molecular target: T4, Apoptotic protease-activating factor 1; assay: SAR analysis of small molecule inhibitors of Apaf-1 in a Fluorescent assay.; format: functional; conditions: read-out: IC50_Mean
[9] = molecular target: T5, Ubiquitin-conjugating enzyme E2 N (Homo sapiens, UniProt P61088); format: functional
T5 sequence (P61088 whole entry): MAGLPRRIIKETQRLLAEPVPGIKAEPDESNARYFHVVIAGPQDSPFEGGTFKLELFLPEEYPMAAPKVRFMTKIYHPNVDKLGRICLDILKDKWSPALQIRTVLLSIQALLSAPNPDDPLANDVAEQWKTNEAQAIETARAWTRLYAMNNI

[10] = molecular target: 72 kDa type IV collagenase (Homo sapiens, UniProt P08253); assay: Dose Response validation of uHTS RPN11 inhibitor hits using a MMP-2 Fluorescence assay.; format: functional
[11] = molecular target: T5, Ubiquitin-conjugating enzyme E2 N; format: functional; remark: listed apart in the source
[12] = system: INS1; assay: beta cell apoptosis inhibitors, cytokine rescue, dose response, luminescence, retest (AID 449756); format: functional, cell-based; conditions: Rattus norvegicus;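 further: cell death triggered by IL-1 beta plus TNF-alpha plus IFN-gamma mixture; protective hits raise ATP signal compared with cytokine alone wells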
[13] = molecular target: T3, Small ubiquitin-related modifier 1; assay: inhibitors of SUMO1 partner interactions, dose response, biochemical, FRET (AID 624383); format: functional; conditions: read-out: IC50_Mean
[14] = molecular target: T6, Botulinum neurotoxin type A (Clostridium botulinum (strain Hall / ATCC 3502 / NCTC 13319 / Type A), UniProt P0DPI1); assay: High-throughput multiplex microsphere dose response for inhibitors of toxin protease, specifically Botulinum neurotoxin light chain A protease, compounds from Cherry Pick 01.; format: functional; conditions: read-out: EC50_MICROM
[15] = molecular target: Botulinum neurotoxin type F (Clostridium botulinum, UniProt P30996); assay: High-throughput multiplex microsphere dose response for inhibitors of toxin protease, specifically Botulinum neurotoxin light chain F protease, compounds from Cherry Pick 02.; format: functional; conditions: read-out: EC50_MICROM
[16] = molecular target: T6, Botulinum neurotoxin type A; assay: High-throughput multiplex microsphere dose response for inhibitors of toxin protease, specifically Botulinum neurotoxin light chain A protease, compounds from Cherry Pick 02.; format: functional; conditions: read-out: EC50_MICROM
[17] = molecular target: Lethal factor (Bacillus anthracis, UniProt P15917); assay: High-throughput multiplex microsphere dose response for inhibitors of toxin protease, specifically Lethal Factor protease, compounds from Cherry Pick 02.; format: functional; conditions: read-out: EC50_MICROM
[18] = molecular target: Casein kinase I isoform alpha (Homo sapiens, UniProt P48729); format: functional
[19] = molecular target: Vascular endothelial growth factor receptor 2 (Homo sapiens, UniProt P35968); format: functional
[20] = molecular target: Tyrosine-protein kinase ABL1 (Homo sapiens, UniProt P00519); format: functional
[21] = molecular target: Cyclin-dependent kinase 8 (Homo sapiens, UniProt P49336); assay: Navigating the Kinome. Panel member name: CDK8; format: functional
[22] = molecular target: Dual specificity tyrosine-phosphorylation-regulated kinase 1B (Homo sapiens, UniProt Q9Y463); assay: Navigating the Kinome. Panel member name: DYRK1B; format: functional
[23] = molecular target: Serine/threonine-protein kinase Chk1 (Homo sapiens, UniProt O14757); format: functional;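 further: measured as one member of a kinome-wide kinase profiling panel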
[24] = molecular target: Tyrosine-protein kinase receptor TYRO3 (Homo sapiens, UniProt Q06418); format: functional;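 further: TYRO3 value obtained as one member of a kinome-wide profiling panel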
[25] = molecular target: LIM domain kinase 1 (Homo sapiens, UniProt P53667); assay: Navigating the Kinome. Panel member name: LIMK1; format: functional
[26] = molecular target: cAMP-dependent protein kinase catalytic subunit PRKX (Homo sapiens, UniProt P51817); format: functional
[27] = molecular target: Calcium/calmodulin-dependent protein kinase type II subunit alpha (Homo sapiens, UniProt Q9UQM7); assay: Navigating the Kinome. Panel member name: CAMK2A; format: functional
[28] = molecular target: Protein kinase C theta type (Homo sapiens, UniProt Q04759); assay: Navigating the Kinome. Panel member name: PRKCQ; format: functional
[29] = molecular target: Aurora kinase A (Homo sapiens, UniProt O14965); format: functional;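 further: value from the Navigating the Kinome kinase panel profiling, panel entry STK6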
[30] = molecular target: Mitogen-activated protein kinase kinase kinase kinase 2 (Homo sapiens, UniProt Q12851); format: functional;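 further: measured as one member of a kinome-wide kinase panel, with MAP4K2 as the panel entry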
[31] = molecular target: Cyclin-dependent kinase 7 (Homo sapiens, UniProt P50613); format: functional;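 further: value comes from a kinome-wide kinase profiling panel in which CDK7 is one member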
[32] = molecular target: Cyclin-dependent kinase 5 (Homo sapiens, UniProt Q00535); format: functional;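 further: CDK5 measured as one member of a kinase profiling panel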
[33] = molecular target: Leucine-rich repeat serine/threonine-protein kinase 2 (Homo sapiens, UniProt Q5S007); format: functional;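 further: value from a broad kinome-wide panel profiling study in which LRRK2 was one of the kinases tested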
[34] = molecular target: Death-associated protein kinase 3 (Homo sapiens, UniProt O43293); format: functional;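 further: measured as one member of a kinome-wide profiling panel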
[35] = molecular target: Hepatocyte growth factor receptor (Homo sapiens, UniProt P08581); format: functional;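 further: kinase panel profiling across the kinome, with MET as the panel member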
[36] = molecular target: Focal adhesion kinase 1 (Homo sapiens, UniProt Q05397); format: functional;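 further: measured as one member of a kinome panel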
[37] = molecular target: Inhibitor of nuclear factor kappa-B kinase subunit epsilon (Homo sapiens, UniProt Q14164); assay: Navigating the Kinome. Panel member name: IKBKE; format: functional
[38] = molecular target: Proto-oncogene tyrosine-protein kinase receptor Ret (Homo sapiens, UniProt P07949); format: functional;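 further: measured within a kinome-wide profiling panel, RET as the panel member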
[39] = molecular target: Dual specificity tyrosine-phosphorylation-regulated kinase 1A (Homo sapiens, UniProt Q13627); format: functional;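 further: measured against DYRK1A as one member of a broad kinome profiling panel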
[40] = molecular target: Serine/threonine-protein kinase D3 (Homo sapiens, UniProt O94806); format: functional;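 further: determined within a kinase panel screen, with PRKCN as the panel member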
[41] = molecular target: Dual specificity protein kinase CLK4 (Homo sapiens, UniProt Q9HAZ1); format: functional
[42] = molecular target: Serine/threonine-protein kinase Nek2 (Homo sapiens, UniProt P51955); format: functional
[43] = molecular target: G protein-coupled receptor kinase 5 (Homo sapiens, UniProt P34947); assay: Navigating the Kinome. Panel member name: GPRK5; format: functional
[44] = molecular target: Aurora kinase B (Homo sapiens, UniProt Q96GD4); format: functional
[45] = molecular target: Platelet-derived growth factor receptor beta (Homo sapiens, UniProt P09619); format: functional;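 further: value comes from a kinome panel, with PDGFRB tested as one panel member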
[46] = molecular target: Macrophage colony-stimulating factor 1 receptor (Homo sapiens, UniProt P07333); format: functional;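 further: value comes from the Navigating the Kinome screening panel, CSF1R member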
[47] = molecular target: Leukocyte tyrosine kinase receptor (Homo sapiens, UniProt P29376); assay: Navigating the Kinome. Panel member name: LTK; format: functional
[48] = molecular target: cAMP-dependent protein kinase catalytic subunit alpha (Homo sapiens, UniProt P17612); format: functional

T3 sequence (P63165 whole entry): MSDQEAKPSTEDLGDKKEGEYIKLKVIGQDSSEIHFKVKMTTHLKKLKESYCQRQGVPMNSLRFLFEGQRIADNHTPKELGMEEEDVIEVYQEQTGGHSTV
T6 sequence (P0DPI1 2-448 limits assumed): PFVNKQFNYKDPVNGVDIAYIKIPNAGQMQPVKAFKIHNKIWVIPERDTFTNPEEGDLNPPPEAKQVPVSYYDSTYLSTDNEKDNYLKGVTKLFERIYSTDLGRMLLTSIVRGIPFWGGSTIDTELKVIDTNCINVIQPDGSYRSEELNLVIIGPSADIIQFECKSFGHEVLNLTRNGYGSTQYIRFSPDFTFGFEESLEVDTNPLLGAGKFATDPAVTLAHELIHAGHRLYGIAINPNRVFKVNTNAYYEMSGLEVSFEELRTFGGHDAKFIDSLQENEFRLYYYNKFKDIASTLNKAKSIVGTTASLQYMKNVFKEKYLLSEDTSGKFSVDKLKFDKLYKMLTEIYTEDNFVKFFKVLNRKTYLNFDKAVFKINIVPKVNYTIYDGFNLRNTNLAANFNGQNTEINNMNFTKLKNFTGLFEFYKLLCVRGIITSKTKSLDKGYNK
Dual specificity tyrosine-phosphorylation-regulated kinase 1B, sequence (Q9Y463 whole entry): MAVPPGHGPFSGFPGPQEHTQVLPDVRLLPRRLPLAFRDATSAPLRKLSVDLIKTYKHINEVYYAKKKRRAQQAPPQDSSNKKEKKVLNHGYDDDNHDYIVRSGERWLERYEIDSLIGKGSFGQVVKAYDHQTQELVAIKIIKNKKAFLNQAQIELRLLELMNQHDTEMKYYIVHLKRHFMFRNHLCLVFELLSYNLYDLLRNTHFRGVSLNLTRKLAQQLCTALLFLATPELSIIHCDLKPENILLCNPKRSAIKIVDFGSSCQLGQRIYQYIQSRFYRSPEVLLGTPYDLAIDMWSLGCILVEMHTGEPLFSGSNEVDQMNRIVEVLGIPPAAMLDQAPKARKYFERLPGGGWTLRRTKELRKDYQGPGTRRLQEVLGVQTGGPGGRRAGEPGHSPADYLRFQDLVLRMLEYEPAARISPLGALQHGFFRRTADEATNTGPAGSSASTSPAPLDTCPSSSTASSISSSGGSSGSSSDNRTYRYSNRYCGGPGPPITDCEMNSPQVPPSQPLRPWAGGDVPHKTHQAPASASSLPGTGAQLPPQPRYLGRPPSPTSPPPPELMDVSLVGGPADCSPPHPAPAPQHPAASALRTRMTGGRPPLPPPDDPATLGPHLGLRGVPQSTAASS
Dual specificity protein kinase CLK4, sequence (Q9HAZ1 whole entry): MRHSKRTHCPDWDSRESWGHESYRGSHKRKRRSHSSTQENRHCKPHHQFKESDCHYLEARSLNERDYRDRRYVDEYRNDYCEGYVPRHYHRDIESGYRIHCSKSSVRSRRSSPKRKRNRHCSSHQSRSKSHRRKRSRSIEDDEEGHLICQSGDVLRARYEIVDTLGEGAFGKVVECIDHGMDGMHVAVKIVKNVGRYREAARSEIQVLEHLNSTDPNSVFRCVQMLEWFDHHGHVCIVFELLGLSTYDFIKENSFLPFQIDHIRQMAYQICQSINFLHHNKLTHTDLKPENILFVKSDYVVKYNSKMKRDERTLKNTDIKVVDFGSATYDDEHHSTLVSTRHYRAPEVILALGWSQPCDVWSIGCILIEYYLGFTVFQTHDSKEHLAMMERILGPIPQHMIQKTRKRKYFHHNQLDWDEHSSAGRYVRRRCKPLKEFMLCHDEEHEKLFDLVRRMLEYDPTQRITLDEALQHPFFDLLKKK
LIM domain kinase 1, sequence (P53667 whole entry, the tested form may be a part): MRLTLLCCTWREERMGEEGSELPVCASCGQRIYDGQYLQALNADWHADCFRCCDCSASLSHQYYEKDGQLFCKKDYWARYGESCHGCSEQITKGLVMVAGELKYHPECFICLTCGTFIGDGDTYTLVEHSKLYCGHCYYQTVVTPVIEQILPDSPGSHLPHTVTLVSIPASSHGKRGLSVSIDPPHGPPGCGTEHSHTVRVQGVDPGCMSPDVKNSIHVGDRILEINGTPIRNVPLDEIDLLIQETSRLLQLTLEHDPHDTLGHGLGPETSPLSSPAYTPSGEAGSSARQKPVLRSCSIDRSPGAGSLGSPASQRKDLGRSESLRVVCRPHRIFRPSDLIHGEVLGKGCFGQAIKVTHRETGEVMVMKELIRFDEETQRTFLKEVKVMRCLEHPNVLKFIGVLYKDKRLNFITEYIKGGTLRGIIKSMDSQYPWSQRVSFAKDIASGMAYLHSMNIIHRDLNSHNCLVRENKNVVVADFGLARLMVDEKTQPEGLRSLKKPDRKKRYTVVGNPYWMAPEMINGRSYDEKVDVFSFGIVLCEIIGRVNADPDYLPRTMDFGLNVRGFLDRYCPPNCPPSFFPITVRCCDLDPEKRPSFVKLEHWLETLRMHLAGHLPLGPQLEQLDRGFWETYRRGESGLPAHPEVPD
Protein kinase C theta type, sequence (Q04759 whole entry): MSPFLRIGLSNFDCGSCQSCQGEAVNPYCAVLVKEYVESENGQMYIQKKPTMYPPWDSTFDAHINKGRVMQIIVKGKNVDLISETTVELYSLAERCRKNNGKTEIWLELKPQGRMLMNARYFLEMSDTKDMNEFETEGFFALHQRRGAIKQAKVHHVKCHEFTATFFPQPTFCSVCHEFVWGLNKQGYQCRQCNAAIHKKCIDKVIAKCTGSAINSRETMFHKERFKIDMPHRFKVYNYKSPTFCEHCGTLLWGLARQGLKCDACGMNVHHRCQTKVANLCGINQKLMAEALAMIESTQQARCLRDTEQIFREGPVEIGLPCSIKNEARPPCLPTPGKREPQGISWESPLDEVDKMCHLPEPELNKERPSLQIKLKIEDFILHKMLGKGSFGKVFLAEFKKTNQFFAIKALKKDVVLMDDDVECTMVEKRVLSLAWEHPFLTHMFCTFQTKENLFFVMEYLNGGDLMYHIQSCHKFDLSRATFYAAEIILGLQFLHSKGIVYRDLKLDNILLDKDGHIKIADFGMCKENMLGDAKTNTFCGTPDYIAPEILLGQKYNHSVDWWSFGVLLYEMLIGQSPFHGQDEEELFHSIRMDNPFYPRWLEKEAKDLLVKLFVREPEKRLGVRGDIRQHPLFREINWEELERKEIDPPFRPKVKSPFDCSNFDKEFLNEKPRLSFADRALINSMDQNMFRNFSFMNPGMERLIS
Serine/threonine-protein kinase Chk1, sequence (O14757 whole entry): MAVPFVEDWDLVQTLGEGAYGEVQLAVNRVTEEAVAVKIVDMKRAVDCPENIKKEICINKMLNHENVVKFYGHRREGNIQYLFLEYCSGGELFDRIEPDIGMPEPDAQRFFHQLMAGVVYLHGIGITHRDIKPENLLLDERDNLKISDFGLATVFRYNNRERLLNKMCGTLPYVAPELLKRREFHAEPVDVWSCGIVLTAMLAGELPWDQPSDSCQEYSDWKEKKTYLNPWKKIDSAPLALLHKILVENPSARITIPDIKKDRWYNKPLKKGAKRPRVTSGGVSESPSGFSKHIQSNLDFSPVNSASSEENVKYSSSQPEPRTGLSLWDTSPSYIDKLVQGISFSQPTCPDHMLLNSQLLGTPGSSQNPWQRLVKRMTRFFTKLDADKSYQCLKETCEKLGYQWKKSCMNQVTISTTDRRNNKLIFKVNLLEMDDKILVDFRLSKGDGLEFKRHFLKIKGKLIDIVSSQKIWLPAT
Macrophage colony-stimulating factor 1 receptor, sequence (P07333 whole entry): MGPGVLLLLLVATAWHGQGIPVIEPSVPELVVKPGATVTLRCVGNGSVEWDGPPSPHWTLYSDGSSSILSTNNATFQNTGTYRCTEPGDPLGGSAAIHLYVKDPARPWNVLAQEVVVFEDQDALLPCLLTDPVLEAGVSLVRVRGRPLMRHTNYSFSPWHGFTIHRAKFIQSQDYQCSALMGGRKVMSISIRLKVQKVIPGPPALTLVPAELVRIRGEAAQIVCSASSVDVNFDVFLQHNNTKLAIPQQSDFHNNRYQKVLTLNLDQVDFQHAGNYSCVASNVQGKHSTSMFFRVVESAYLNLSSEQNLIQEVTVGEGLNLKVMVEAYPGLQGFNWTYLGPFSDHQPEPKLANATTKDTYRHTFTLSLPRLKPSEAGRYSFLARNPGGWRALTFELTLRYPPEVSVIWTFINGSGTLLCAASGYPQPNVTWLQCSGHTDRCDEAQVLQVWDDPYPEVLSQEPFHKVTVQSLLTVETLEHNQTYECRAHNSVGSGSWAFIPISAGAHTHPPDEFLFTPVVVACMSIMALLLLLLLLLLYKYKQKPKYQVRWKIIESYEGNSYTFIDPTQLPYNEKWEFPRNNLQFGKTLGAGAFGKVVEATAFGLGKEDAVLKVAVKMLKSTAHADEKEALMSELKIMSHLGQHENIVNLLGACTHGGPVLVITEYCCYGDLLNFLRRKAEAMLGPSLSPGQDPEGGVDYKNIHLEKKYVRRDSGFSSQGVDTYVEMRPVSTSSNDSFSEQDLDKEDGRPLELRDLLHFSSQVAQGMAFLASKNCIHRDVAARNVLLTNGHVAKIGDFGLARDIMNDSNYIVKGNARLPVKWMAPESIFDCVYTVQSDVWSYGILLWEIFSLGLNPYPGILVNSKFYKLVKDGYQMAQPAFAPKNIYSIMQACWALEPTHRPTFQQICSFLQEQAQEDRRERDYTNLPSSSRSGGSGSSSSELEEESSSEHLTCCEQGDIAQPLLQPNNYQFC
Aurora kinase B, sequence (Q96GD4 whole entry): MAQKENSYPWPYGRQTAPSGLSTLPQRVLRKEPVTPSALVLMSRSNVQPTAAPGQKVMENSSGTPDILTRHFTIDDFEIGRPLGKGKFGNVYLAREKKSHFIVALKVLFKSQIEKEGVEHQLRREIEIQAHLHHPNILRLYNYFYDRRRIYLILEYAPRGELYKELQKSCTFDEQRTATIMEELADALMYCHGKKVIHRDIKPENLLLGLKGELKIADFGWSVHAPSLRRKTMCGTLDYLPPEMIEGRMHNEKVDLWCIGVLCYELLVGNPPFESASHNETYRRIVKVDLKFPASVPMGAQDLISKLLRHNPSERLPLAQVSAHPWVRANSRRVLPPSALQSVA

CCN(CC)CCOC(=O)c1ccc(N/C=C(/C#N)c2nc(-c3ccc4c(c3)OCO4)cs2)cc1
CC50 [1]: > 40 µM (active)
IC50 [2]: 56.1 µM (active)
IC50 [3]: 120 µM (active)
IC50 [4]: 1.72 µM (active)
IC50 [5]: > 66.6 µM (inactive)
IC50 [6]: 31.4 µM (active)
IC50 [7]: 20.7 µM (active)
IC50 [8]: 6.43 µM (active)
IC50 [9]: 6.35 µM (active)
IC50 [10]: > 100 µM (inactive)
IC50 [11]: 5.07 µM (active)
AC50 [12]: 11 µM (active)
IC50 [13]: 2.13 µM (active)

CCOCCSc1nc2c(c(-c3cccs3)c1C#N)CC/C2=C/c1cccs1
EC50 [14]: 6.4 µM (active)
EC50 [15]: 8 µM (active)
EC50 [16]: 17.8 µM (active)
EC50 [17]: 16.7 µM (active)

CC1=CN2CC(=O)NN=C2C=C1
Ki [18]: 79.4 µM (active)
Ki [19]: > 100 µM (inactive)
Ki [20]: 100 µM (active)
Ki [21]: 20 µM (active)
Ki [22]: 25.1 µM (active)
Ki [23]: 12.6 µM (active)
Ki [24]: 50.1 µM (active)
Ki [25]: 12.6 µM (active)
Ki [26]: 79.4 µM (active)
Ki [27]: 63.1 µM (active)
Ki [28]: > 100 µM (inactive)
Ki [29]: 31.6 µM (active)
Ki [30]: 79.4 µM (active)
Ki [31]: 79.4 µM (active)
Ki [32]: 50.1 µM (active)
Ki [33]: 31.6 µM (active)
Ki [34]: 63.1 µM (active)
Ki [35]: 50.1 µM (active)
Ki [36]: 79.4 µM (active)
Ki [37]: 100 µM (active)
Ki [38]: 50.1 µM (active)
Ki [39]: 12.6 µM (active)
Ki [40]: 100 µM (active)
Ki [41]: 3.16 µM (active)
Ki [42]: 20 µM (active)
Ki [43]: 50.1 µM (active)
Ki [44]: 79.4 µM (active)
Ki [45]: > 79.4 µM (inactive)
Ki [46]: > 100 µM (inactive)
Ki [47]: 31.6 µM (active)
Ki [48]: > 50.1 µM (inactive)
